Common to all, as to experiment: relative viability (nuclei count vs DMSO), 5 days (fraction); higher = more cells survive
Compound in the assay “Motesanib + Palbociclib”: CC1(C)CNc2cc(NC(=O)c3cccnc3NCc3ccncc3)ccc21 [Motesanib] + CC(=O)c1c(C)c2cnc(Nc3ccc(N4CCNCC4)cn3)nc2n(C2CCCC2)c1=O [Palbociclib] (partner 0.5 µM)
The essentials: (§1)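 Lung cancer cell lines in 1536-well plates got either a single drug or a fixed anchor-drug dose together with five library-drug doses (not always all listed) in √10 steps, by pin tool, on the day after seeding. Nuclei were counted after 5 days, and relative viability is the treated-to-vehicle ratio of nuclei counts. Values are medians of duplicate plates.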

Compound in the assay “Motesanib + Luminespib”: CC1(C)CNc2cc(NC(=O)c3cccnc3NCc3ccncc3)ccc21 [Motesanib] + CCNC(=O)c1noc(-c2cc(C(C)C)c(O)cc2O)c1-c1ccc(CN2CCOCC2)cc1 [Luminespib] (partner 0.01 µM)
The essentials: as §1

Compound in the assay “Motesanib + Alpelisib”: CC1(C)CNc2cc(NC(=O)c3cccnc3NCc3ccncc3)ccc21 [Motesanib] + Cc1nc(NC(=O)N2CCC[C@H]2C(N)=O)sc1-c1ccnc(C(C)(C)C(F)(F)F)c1 [Alpelisib] (partner 2 µM)
Summed up:
as §1

Compound in the assay “Motesanib + Phenformin”: CC1(C)CNc2cc(NC(=O)c3cccnc3NCc3ccncc3)ccc21 [Motesanib] + N=C(N)NC(=N)NCCc1ccccc1 [Phenformin] (partner 250 µM)
Summed up:
as §1

As to UMC-11, the relative viability with Motesanib + Palbociclib (first compound 0.01 µM) was 0.317; with Motesanib + Palbociclib (first compound 0.03162 µM), 0.302; with Motesanib + Palbociclib (first compound 0.1 µM), 0.314; in the assay with Motesanib + Palbociclib (first compound 0.3162 µM), 0.394; in the assay with Motesanib + Palbociclib (first compound 1 µM), 0.347; with Motesanib + Luminespib (first compound 0.01 µM), 0.987. Moreover, the relative viability was 1.07 in the assay with Motesanib + Luminespib (first compound 0.03162 µM); 0.927 in the assay with Motesanib + Luminespib (first compound 0.1 µM); 1.12 in the assay with Motesanib + Luminespib (first compound 0.3162 µM); 1.17 in the assay with Motesanib + Luminespib (first compound 1 µM); 0.923 in the assay with Motesanib + Alpelisib (first compound 0.01 µM); 0.973 with Motesanib + Alpelisib (first compound 0.03162 µM). Further, the relative viability in the assay with Motesanib + Alpelisib (first compound 0.1 µM) turned out to be 0.981; in the assay with Motesanib + Alpelisib (first compound 0.3162 µM), 1.03; in the assay with Motesanib + Alpelisib (first compound 1 µM), 1.03; with Motesanib + Phenformin (first compound 0.01 µM), 0.29; with Motesanib + Phenformin (first compound 0.03162 µM) it was 0.33; with Motesanib + Phenformin (first compound 0.1 µM) it was 0.324. Further, the relative viability amounted to 0.33 in the assay with Motesanib + Phenformin (first compound 0.3162 µM) and 0.345 with Motesanib + Phenformin (first compound 1 µM).

The values are drawn from the supplement of paper PMC10307832.
